Reference: PMC6838142, “Nano-Antagonist Alleviates Inflammation and Allows for MRI of Atherosclerosis” (Nanotheranostics, 2019)

Key:
[1] = tested on: BMDMs from CCR2-knockout mice; assay: Actin polymerization in BMDMs from CCR2-knockout mice; type: cell-based, mouse
Description: BMDMs were seeded and cultured on #1 glass coverslips in the presence or absence of 10 μM CCTV or VTCC for 6 h. Next, cells were washed with PBS and recombinant mouse CCL2 was added to a final concentration of 500 nM. Then, cells were incubated for varying times (indicated in Figure 2G), after which they were immediately placed on ice and washed 3 times with cold PBS. Actin polymerization was then visualized following staining with phalloidin Alexa Fluor 633, according to the manufacturer's instructions.

RAW cells = assay: Flow cytometry competition with excess free peptide; type: cell-based, mouse; settings: excess (1 mM) free peptide
From the text: Figure 1 Screening identifies CCTV as an anti-inflammatory nanoparticle with high affinity for CC chemokine receptor 2. A) A screening of a small library of nanoparticles in lipopolysaccharide (LPS)-stimulated macrophage reporter cells (RAW-Blue) identified CCTV, which downregulates nuclear factor-kappa B (NF-κB) activity. Each point on the plot represents a relative activity of NF-κB (X-coordinate) and corresponding nanoparticle content per mg of cell protein (Y-coordinate) calculated from nanoparticle fluorescence. […] Dexamethasone (Dex) is an NF-κB inhibitor and was used as a positive control. Vehicle-treated and unstained (US) cells served as a negative control. B) CCTV binding to the cell surface was validated in RAW cells using fluorescence microscopy. The cells were stained at 4 °C or room temperature for 30 min with CCTV or vehicle nanoparticles (sudo-colored green). […] E) The Basic Local Alignment Search Tool (BLAST) analysis determined that CCTV peptide sequence repeats in mouse and human CC chemokine receptor family. […]
For a targeted nanotherapy to be effective, the nanoparticles must have affinity to a specific cell type, usually determined by cell surface binding. […] Thus, we used the mouse macrophage reporter cell line RAW-Blue that allowed for monitoring activity of Nuclear Factor-kappa B (NF-kB) and also enabled In vitro quantitation of nanoparticle binding to the cell surface. […]

recombinant CCR2 protein = assay: Competition with CCL2 binding to immobilized CCR2; settings: free peptide 1 mM in dimethylformamide, 1 h room temperature, recombinant human CCL2; OD 450 nm; three independent experiments
Description: A sandwich-type plate-based immunoassay was developed in-house to study CCR2 receptor binding. Black opaque plates (for fluorescence studies) or clear high protein binding plates (for absorbance studies) were coated with recombinant CCR2 protein at 2 µg/mL in PBS overnight at 4 °C. Plates were washed 5 times with PBS and treated as follows: for nanoparticles binding, varying concentrations of fluorescent nanoparticles or vehicle control (see above) in PBS were added to the opaque plates and incubated for 4 h at room temperature. For peptide competition/binding studies, recombinant human CCL2 was added in clear plates at varying concentrations in PBS simultaneously with a large excess of peptides (1 mM final concentration, dissolved in dimethylformamide) and incubated for 1 h at room temperature. All plates were washed 5 times with PBS and fluorescence in opaque plates was read at 550 nm excitation and 620 nm emissions. […] Clear plates were washed and incubated with 0.1 µg/mL streptavidin-HRP. Finally, clear plates were washed and incubated with SigmaFast OPD reagent in the presence of hydrogen peroxide-urea, as per the manufacturer's instructions. After 30 min incubation period at 37 °C, the plates were read at 450 nm on a multiwell plate reader as described above. Fluorescence emission values and OD at 450 nm were plotted against concentration using a 4-parametric fit.

## CCL2: recombinant mouse CCL2/MCP-1 protein, natural CCR2 ligand
[1]
  actin polymerization in CCR2-knockout BMDMs: neither nanoparticles nor CCL2 are able to induce polymerization

## CCTV [free CCTV peptide, free (unconjugated) CCTV tetrapeptide]
RAW cells
  reduction of CCTV nanoparticle staining by free peptide: did not show appreciable reduction in CCTV staining in RAW cells
Recombinant CCR2 protein
  competition with CCL2 binding to CCR2: insignificantly competed with receptor binding of natural CCR2 ligand
